11 compounds from PubChem BioAssay (NCI) can be followed below.

Test systems include MDA-N; SW-620 colon; A549 NSCLC; UACC-257 melanoma; SN12C renal; ACHN renal; M14 melanoma; CAKI-1 renal; MOLT-4 leukemia; NCI-H460 lung.
What all share (experiment): NCI anticancer screen, dose series, 48 h

Molecules are shown by their SMILES.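 Protocol summary: plate cells (96-well), add compound at 5 concentrations, incubate 48 h, interpolate endpoints linearly. TGI marks complete inhibition of growth.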 Where a SMILES comes first, the peptide text is derived from it. [ ]: non-standard residue; d: D form. pGlu = O=C1CC[CH](C(=O)O)N1

For `O=c1[nH]c(NCc2cccnc2)nc2nc[nH]c12`, the TGI in the assay with MDA-N, in the assay with SW-620 colon, in the assay on A549 NSCLC, with UACC-257 melanoma, in the assay with SN12C renal and with ACHN renal was over 100 µM throughout. Also, the TGI with M14 melanoma, in the assay on CAKI-1 renal, in the assay on MOLT-4 leukemia and in the assay with NCI-H460 lung was over 100 µM throughout.

In the case of `COC(=O)C(CNC(=O)/C=C/c1ccc(OC)c(OC)c1)NC(=O)/C=C/c1ccc(OC)c(OC)c1` (stereo not drawn), the TGI in the assay on MDA-N, in the assay on SW-620 colon, in the assay on A549 NSCLC, in the assay on UACC-257 melanoma, in the assay on SN12C renal and in the assay with ACHN renal was over 100 µM each time. Moreover, the TGI with M14 melanoma, with CAKI-1 renal, in the assay with MOLT-4 leukemia and in the assay with NCI-H460 lung was over 100 µM each time.

For `O=C(Cc1ccc2ccccc2c1)NCc1ccc(C(=O)NCCc2ccccc2)cc1`, the TGI in the assay on MDA-N, with SW-620 colon, in the assay on A549 NSCLC, in the assay with UACC-257 melanoma, in the assay with SN12C renal and in the assay on ACHN renal was over 100 µM throughout. For the same compound, the TGI with M14 melanoma, in the assay on CAKI-1 renal and in the assay with NCI-H460 lung was over 100 µM throughout.

Turning to `O=C(Nc1ccccc1)N(CCN(Cc1ccccc1)C(=O)Nc1ccccc1)CCN(Nc1ccccc1)C(=O)Nc1ccccc1`, the TGI in the assay on MDA-N, in the assay with SW-620 colon, in the assay on A549 NSCLC, with UACC-257 melanoma, with SN12C renal and in the assay on ACHN renal was over 100 µM in each case. The TGI in the assay on M14 melanoma, with CAKI-1 renal, in the assay with MOLT-4 leukemia and with NCI-H460 lung was over 100 µM each time.

For `O=c1onc2n1-c1ccc(Cl)cc1C(=S)N1CSCC21` (stereo not drawn), the TGI with MDA-N was 23.7 µM; in the assay with SW-620 colon it was 47.7 µM; in the assay with A549 NSCLC, over 100 µM; in the assay with UACC-257 melanoma, over 100 µM; in the assay on SN12C renal it was 88.2 µM; with ACHN renal it was over 100 µM. The TGI is 28.8 µM in the assay on M14 melanoma, over 100 µM with CAKI-1 renal, over 100 µM with MOLT-4 leukemia and 40 µM in the assay with NCI-H460 lung.

As for `Nc1nc(Cl)cc(NCC2(CCO)CCC2)n1`, the TGI in the assay with MDA-N, in the assay on SW-620 colon, with A549 NSCLC, in the assay on UACC-257 melanoma, in the assay with SN12C renal and in the assay on ACHN renal was over 100 µM in each case. The TGI with CAKI-1 renal, in the assay on MOLT-4 leukemia and with NCI-H460 lung was over 100 µM in each case.

Take `Cc1cc(N(CCC#N)CCC#N)ccc1/C(N=Nc1ccc([N+](=O)[O-])cc1)=N\NC(=O)c1cc(Cl)ccc1O`: the TGI in the assay with MDA-N, in the assay with A549 NSCLC, in the assay with UACC-257 melanoma, with SN12C renal, with ACHN renal and with M14 melanoma was over 100 µM in each case. The TGI is over 100 µM with CAKI-1 renal, 72.3 µM in the assay on MOLT-4 leukemia and over 100 µM in the assay with NCI-H460 lung.

With `O=[N+]([O-])c1ncc(N(CCO)CCO)s1`, the TGI was over 100 µM in the assay with MDA-N; over 100 µM in the assay with SW-620 colon; 71.4 µM in the assay with UACC-257 melanoma; over 100 µM with SN12C renal; over 100 µM in the assay on ACHN renal; over 100 µM in the assay with M14 melanoma. In addition, the TGI in the assay with CAKI-1 renal, in the assay on MOLT-4 leukemia and in the assay with NCI-H460 lung was over 100 µM in each case.

For the compound `C=C1C2CCC3C4(C)CCCC(C)(C(=O)O)C4CCC3(C2)C1OC(=O)/C(C)=C/C` (stereo not drawn), the TGI in the assay with MDA-N was 68.2 µM; in the assay with SW-620 colon it was over 100 µM; in the assay on A549 NSCLC, over 100 µM; in the assay with UACC-257 melanoma, over 100 µM; in the assay on SN12C renal it was 62.6 µM; in the assay with ACHN renal, over 100 µM. The TGI was 45.1 µM in the assay with M14 melanoma, over 100 µM with CAKI-1 renal and over 100 µM in the assay on NCI-H460 lung.

As to `CC(NC(=O)C1CCC(=O)N1)C(=O)N1CCCC1C(N)=O` (stereo not drawn) ([pGlu]-Ala-Pro-NH2; configuration not given here), the TGI in the assay on MDA-N, in the assay on SW-620 colon, with A549 NSCLC, in the assay with SN12C renal, with ACHN renal and in the assay with M14 melanoma was over 100 µM in each case. In addition, the TGI with CAKI-1 renal, in the assay with MOLT-4 leukemia and in the assay on NCI-H460 lung was over 100 µM each time.

With `CC(C)(C)C1=C(Br)C(F)(C(C)(C)C)OP1(=O)c1ccccc1` (stereo not drawn), the TGI in the assay on MDA-N is 34.7 µM; with SW-620 colon, 32.3 µM; with A549 NSCLC it was 36.3 µM; in the assay with UACC-257 melanoma, 30.9 µM; with SN12C renal, 29.5 µM; with ACHN renal it was 30 µM. The TGI worked out at 28.5 µM with M14 melanoma, 25.8 µM in the assay with CAKI-1 renal and 35.6 µM in the assay with NCI-H460 lung.
